# In patent US20230398087A1, “APPLICATION OF BZP IN TREATMENT OF ISCHEMIC CARDIOVASCULAR AND CEREBRAL VASCULAR DISEASES” (priority 2020, published 2023):
# pIC50: −log10 of the molar value. “And” between values parts separate entries of the source, which are not always exact repeats. Identical values can stand only once. “Also recorded” adds a separate entry of the source.
# Assays:
# [1] = test system: salt-sensitive rats; test: Salt-sensitive rats; assay type: in vivo
# [2] = test system: TNF-α, IL-6, IL-1β, NF-κB, COX-2, ICAM-1; test: Inflammatory response induced by focal cerebral ischemia-reperfusion injury, immunohistochemical staining; assay type: in vivo, rats
# Source text: 2.2 Effects of BZP on Inflammatory Response Induced by Focal Cerebral Ischemia-Reperfusion Injury in Rats:
# The results of TNF-α, IL-6, IL-1β, NF-κB, Cox-2, ICAM-1 immunohistochemical staining
# BZP can inhibit the cellular inflammatory response induced by cerebral ischemia-reperfusion injury, manifested as inhibiting the expression of TNF-α-IL-6-IL-1β-NF-κB-COX-2-ICAM-1 loop.
# [3] = in vivo; details: for recovery of toxic reactions in the nervous system and respiratory system: acute toxicity test; for MTD: in vivo, single intravenous injection
# Description: In the acute toxicity test, a single intravenous injection of BZP was given to rats and dogs, and the MTDs were 200 mg/kg and 300 mg/kg.
# [4] = test system: cardiovascular system; test: Safety pharmacology, cardiovascular system; assay type: in vivo, dogs
# Description: These changes all recovered within 0.5 hours after administration. The dose range of […] BZP has no effect on the II-lead ECG.
# [5] = Long-term toxicity test, 13 consecutive weeks, rats; assay type: in vivo
# Description: (§1) These gradually returned to normal within 1 hour. […] The nervous system and respiratory system reactions in the long-term toxicity test were transient reactions, and the slight anemia and damage to the liver also recovered within the observation period.
# [6] = test system: platelet aggregation; test: Ex vivo platelet aggregation; assay type: cell-based
# [7] = BZP1702 Phase I multiple doses pharmacokinetics in healthy subjects; details: for half-life: both, human, plasma
# Description: Analysis population: same as BZP1601 trial. The study contained 4 BZP groups (50 mg, 100 mg, 200 mg respectively) and a placebo group. Each group enrolled 10, 10, 10 and 6 subjects, respectively, a total of 36 subjects. 1 subject in the 50 mg group took a drug two days before the administration, and the paracetamol, caffeine, artificial cow-bezoar and chlorphenamine maleate may affect the metabolism of the drug, and the subject dropped out of the group after collecting a 24-hour blood sample on the second day of administration, so the pharmacokinetic parameters could not be fully calculated, and thus this subject was not included in the pharmacokinetic analysis data set, and the other 29 subjects who were given BZP were all included in the pharmacokinetic analysis data set.
# The blood samples were collected at 0 minutes, 20 minutes, 40 minutes, minutes (end of infusion), 1.25 hours, 1.5 hours, 2 hours, 2.5 hours, 3 hours, 4 hours, 6 hours, 8 hours, 12 hours, 16 hours, 24 hours, 36 hours, and 48 hours after administration in BZP1601 trial, while in the BZP1702 trial, on the first day of administration, the blood samples were collected only by 24 hours after administration.
# [8] = test system: experimental thrombosis; test: Experimental thrombosis in rats; assay type: in vivo; details: for results of experimental thrombosis: significantly lower than model group (P<0.01)
# [9] = Pharmacokinetics after intravenous injection in dogs; assay type: in vivo
# [10] = Pharmacokinetics after intravenous injection in rats; assay type: in vivo
# [11] = test system: SYN, GAP-43, BDNF, GFAP, NOGO-A in the ischemic penumbra area; test: Neuroplasticity after focal cerebral ischemia-reperfusion injury; assay type: in vivo, rats
# Source text: 2.4 Effect of BZP on Neuroplasticity after Focal Cerebral Ischemia-Reperfusion Injury in Rats: […]
# [12] = test system: MCAO model rats; test: Focal cerebral ischemia-reperfusion injury in rats (MCAO model); assay type: in vivo
# Description: (§2) BZP has a protective effect on cerebral ischemia-reperfusion injury and is effective when administered within 4 hours after ischemia, especially within 2 hours after ischemia.
# In the follow-up test, the drug was administered at 2 h of ischemia.
# BZP can improve motor dysfunction, reduce the volume of cerebral infarction, and reduce cerebral edema. The optimal treatment time window is within 4 hours after ischemia, especially within 2 hours after ischemia.
# [13] = test system: respiratory system; test: Safety pharmacology, respiratory system; assay type: in vivo, rats; details: single intravenous injection 25-100 mg/kg
# Description: In terms of the respiratory system, a single intravenous injection of BZP 25-100 mg/kg had no effect on rats.
# [14] = test system: global cerebral ischemia-reperfusion model in rats; test: Global cerebral ischemia-reperfusion injury in rats; assay type: in vivo
# Description: as §2
# 2.5 The Protective Effect of BZP on Global Cerebral Ischemia-Reperfusion Injury in Rats:
# BZP has a protective effect on acute global cerebral ischemia in rats, and its mechanism is to inhibit the inflammatory response and apoptosis of cells.
# [15] = test system: Bax/Bcl-2-cytochrome C-Caspase-3 mitochondrial apoptosis pathway; PI3K-p-Akt survival signaling pathway; test: Neuronal apoptosis after focal cerebral ischemia-reperfusion injury; design: species or system rats; details: rat, in vivo
# Source text: 2.3 The Protective Effect of BZP on Neuronal Apoptosis after Focal Cerebral Ischemia-Reperfusion Injury in Rats: […]
# [16] = Long-term toxicity test, 13 consecutive weeks, dogs; assay type: in vivo
# Description: as §1
# [17] = BZP 3, 12 and 24 mg/kg, dose-dependent
# [18] = 12 mg/kg of BZP vs 9.6 mg/kg NBP-K and 10.5 mg/kg Br-NBP
# [19] = low, middle and high dose, compared with the model group
# [20] = 7 consecutive days, 6.0 mg/kg, rats
# [21] = BZP 3, 12 and 24 mg/kg, compared with the model group
# [22] = compared with the model group (P<0.05)
smiles,measurement,setting,value
"CCCCC(O)c1ccc(Br)cc1C(=O)[O-].[Na+] (stereo not drawn) [BZP, sodium 5-bromo-2-(α-hydroxypentyl)benzoate]",blood pressure of salt-sensitive rats,"[1]; 12 mg/kg, 21 days after administration",significantly reduce the blood pressure
same,neurobehavior of salt-sensitive rats,[1]; [17],improve the neurobehavior
same,"number of positive cells, comparison with NBP-K and Br-NBP groups",[2]; [18],better than 9.6 mg/kg of NBP-K group and 10.5 mg/kg of Br-NBP group
same,"optical density value, comparison with NBP-K and Br-NBP groups",[2]; [18],better than 9.6 mg/kg of NBP-K group and 10.5 mg/kg of Br-NBP group
same,"expression of TNF-α, IL-6, IL-1β, NF-κB, COX-2, ICAM-1, immunohistochemical staining optical density value",[2]; [19],significantly reduced
same,"expressions of TNF-α, IL-6, IL-1β, NF-κB, COX-2, ICAM-1, number of immunohistochemical positive cells",[2]; [19],significantly reduced
same,recovery of toxic reactions in the nervous system and respiratory system,[3]; dogs,recovered within 15 minutes to 4 hours
same,recovery of toxic reactions in the nervous system and respiratory system,[3]; rats,recovered within 15 minutes to 4 hours
same,MTD,"[3]; dog, dogs",300 mg/kg
same,MTD,"[3]; rat, rats",200 mg/kg
same,time to recovery of blood pressure changes after administration,[4]; 50 mg/kg intravenous,≤ 0.5 h
same,"systolic blood pressure, diastolic blood pressure and mean arterial pressure",[4]; 0.25 hours after intravenous injection of 50 mg/kg,small transient increase
same,effect on the II-lead ECG,[4]; dose range of 5-50 mg,no effect
same,time to return to normal,[5]; 150 mg/kg,≤ 1 h
same,clinical signs at the end of each administration,"[5]; 150 mg/kg intravenous once a day, 13 weeks","shortness of breath, prone position, occasional salivation, and disappearance of righting reflex"
same,"hematology, blood biochemistry, eye examination and urine routine",[5]; 13 weeks,no obvious abnormalities
same,NOAEL at 13 weeks,"[5]; rat, in vivo, long-term toxicity test, read-out: NOAEL dose",50 mg/kg
same,inhibition of ADP-induced platelet aggregation,[6]; ADP-induced,no inhibitory effects
same,pIC50,"[6]; Platelet, AA-induced",4.92
same,inhibition of thrombin-induced platelet aggregation,[6]; thrombin-induced,no inhibitory effects
same,accumulation after multiple intravenous infusions,[7]; 7 days,no obvious drug accumulation; also recorded: no significant drug accumulation; also recorded: There was no significant
same,metabolites other than BNBP,[7]; BZP1702,No significant metabolites other than BNBP were found
same,accumulation ratio,[7]; after 7 days of continuous administration,1.10-1.18
same,half-life,[7]; intravenous,5.34 to 5.57 h
same,half-life,[7]; iv,11.1 to 13.3 h
same,difference in AUC0-t and Cmax between subjects of different genders,[7]; multiple doses,not significantly different and 7 days. There was no
same,"mean ratio range between genders, AUC0-t",[7]; multiple doses,0.797-1.01
same,"mean ratio range between genders, Cmax",[7]; multiple doses,0.799-1.01
same,day on which blood drug level reached steady state,"[7]; multiple intravenous infusions of BZP, 50-200 mg",steady state on the 5th day; also recorded: steady state on the fifth
same,relationship of AUC0-t and Cmax in plasma with the dose,"[7]; multiple intravenous infusions, 50-200 mg, first and steady-state administration",linearly related to the dose; also recorded: linear relationship with the dose
same,experimental thrombosis compared with the Br-NBP group,[8]; high dose group (P<0.01),weaker than that in the Br-NBP group
same,experimental thrombosis compared with the ASA group with the same molar dose,[8]; high dose group (P>0.05),no statistical difference
same,results of experimental thrombosis,[8]; high dose group,0.13±0.03
same,results of experimental thrombosis,[8]; low dose group,0.23±0.04
same,results of experimental thrombosis,[8]; medium dose group,0.18±0.02
same,"Cmax and AUC0-t, first compared with last administration","[9]; 7 consecutive days, 2.0 mg/kg, dogs",no statistically significant differences
same,accumulation in the body,"[9]; intravenous, 7 consecutive days, 2.0 mg/kg, dogs",did not accumulate
same,difference between male and female dogs,[9]; single intravenous injection,no significant difference
same,Cmax and AUC0-t versus dose,"[9]; single intravenous injection of BZP 1.0-4.0 mg/kg, dogs",basically conformed to linear kinetics
same,AUC0-t after the last administration compared with the first,[10]; [20],significantly higher than that of the first time
same,"Cmax, single dose compared with multiple doses",[10]; [20],no difference
same,accumulation in the body,"[10]; intravenous, 7 consecutive days, 6.0 mg/kg, rats",did not accumulate
same,"AUC0-t, female compared with male rats",[10]; single intravenous injection,significantly higher than that in male rats
same,Cmax and AUC0-t versus dose,"[10]; single intravenous injection of BZP 0.75-12.0 mg/kg, rats",basically conformed to linear kinetics
same,NOGO-A expression,[11]; ischemic penumbra area,down-regulating
same,"expression of SYN, GAP-43, BDNF and GFAP",[11]; ischemic penumbra area,increasing
same,nerve repair and recovery of motor function after cerebral ischemic injury,"[11]; rat, in vivo",promote nerve repair
same,volume of cortical infarction,[12]; 0.75 mg/kg (P<0.01),significantly reduce the volume of cortex
same,effect on volume of cerebral infarction compared with Br-NBP group,[12]; 3 mg/kg of BZP (P<0.01),better than that of Br-NBP group
same,muscle strength and balance beam behavior,[12]; 12 mg/kg,significantly restore
same,proportion of necrotic neurons and apoptosis rate,[12]; 12 mg/kg,reduce the proportion of necrotic neurons and apoptosis rate
same,effect of administration at 0.5 h and 2 h compared with 4 h after ischemia,[12]; 12 mg/kg (P<0.01),better than that of 4 h
same,"volume of cerebral infarction, treatment time window","[12]; 12 mg/kg at 0.5 h, 2 h or 4 h after ischemia, compared with the model group",significantly reduce
same,improved effects compared with NBPK group,"[12]; 12 mg/kg, muscle strength, balance beam, necrotic neurons, apoptosis rate",significantly better than those of NBPK group
same,volumes of cerebral infarction,"[12]; 0.75, 3, 12 and 24 mg/kg, compared with the model group (P<0.01)",significantly reduced
same,neurobehavioral scores,"[12]; 3, 12 and 24 mg/kg, at 2.5 h and 6 h, compared with the model group (P<0.05, P<0.01)",significantly lower
same,volumes of brain edema,"[12]; 3, 12 and 24 mg/kg, compared with the model group (P<0.01)",significantly reduced
same,volumes of striatal and cortical infarction,[12]; 3 and 12 mg/kg (P<0.01),significantly reduced the volumes of striatal and cortical infarction
same,effect on volume of cerebral infarction compared with NBP-K and Br-NBP groups,[12]; 12 and 24 mg/kg of BZP (P<0.01),better than those of NBP-K and Br-NBP groups
same,effect on brain edema compared with NBP-K group and Br-NBP group,[12]; 24 and 12 mg/kg of BZP (P<0.01),better than those of NBP-K group and Br-NBP group
same,brain swelling,[12]; [21],significantly reduce
same,volume of cerebral infarction,[12]; [21],significantly reduce
same,neurobehavior of MCAO model rats,[12]; [17],improve the neurobehavior
same,treatment time window: time of administration after ischemia at which effective,[12]; especially within 2 hours after ischemia,≤ 4 h
same,effective dose to protect against ischemia-reperfusion injury in rats,"[12]; rat, in vivo",12 mg/kg
same,effect on the respiratory system,[13],no effect
same,mortality and behavioral score within 24 hours,[14]; 12 mg/kg,reduce the mortality and behavioral score
same,mortalities within 24 hours,[14]; 3 and 12 mg/kg,lower than those in the model group and the NBP-K group
same,"cell survival pathways (PI3K, P-Akt)",[14]; compared with the model group (P<0.01),significantly increased
same,behavioral scores,[14]; [22],significantly lower
same,"expression of inflammatory circuit factors, apoptosis pathway factors, neuron necrosis rate and apoptosis rate in hippocampal CA1 region",[14]; [22],significantly decreased
same,Bax/Bcl-2-cytochrome C-Caspase-3 mitochondrial apoptosis pathway,[15],inhibiting
same,PI3K-p-Akt survival signaling pathway,[15],up-regulating
same,loss of nerve cells and apoptosis rate,[15],reduce the loss of nerve cells and reduce the apoptosis rate
same,clinical signs during and after administration,"[16]; 50 mg/kg, some dogs","tremors in the head and limbs, loose stools, vomiting, and salivation"
same,clinical signs during each administration,"[16]; 150 mg/kg intravenous once a day, 13 weeks, dogs","vomited white foam-like substances, salivation, head and whole body tremors, spasms/convulsions"
same,anemia and liver findings,"[16]; 150 mg/kg, dogs",mild anemia and liver damage
same,NOAEL at 13 weeks,"[16]; dog, in vivo, long-term toxicity test, dogs, read-out: NOAEL dose",50 mg/kg
same,recovery of symptoms,"[16]; dogs, after drug withdrawal",all recovered after 28 days of drug withdrawal
